Reference: patent US8846739B2, “TGR5 agonists” (Exelixis Patent Company LLC, priority 2009, dated 2014)

Experiments:
h-TGR5 = target: T1, h-TGR5 (Homo sapiens, UniProt Q8TDU6); assay: TGR5 cAMP Assay using Cisbio cAMP Dynamic 2 htrf assay kit; assay type: cell-based; conditions: hTGR5CRE-luc HEK 293 cells
T1 sequence (Q8TDU6 1-330): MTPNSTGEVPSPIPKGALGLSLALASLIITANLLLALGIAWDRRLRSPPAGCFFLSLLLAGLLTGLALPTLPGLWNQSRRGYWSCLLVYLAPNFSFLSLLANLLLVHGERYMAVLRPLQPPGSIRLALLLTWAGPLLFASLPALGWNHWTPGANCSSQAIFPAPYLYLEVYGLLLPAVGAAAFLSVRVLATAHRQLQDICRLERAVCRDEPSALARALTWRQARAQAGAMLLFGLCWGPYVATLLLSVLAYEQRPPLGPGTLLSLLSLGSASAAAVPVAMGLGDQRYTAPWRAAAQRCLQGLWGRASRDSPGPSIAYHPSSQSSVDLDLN

human TGR5 (h-TGR5) = target: T2, human TGR5 (h-TGR5) (Homo sapiens, UniProt Q8TDU6); assay: TGR5/CRE-Luciferase Assay; assay type: cell-based; conditions: HEK 293 hTGR5/CRE-Luc cells, 6 hours incubation, read-out: CRE-Luc Agonist (EC50)
T2 sequence (Q8TDU6 1-330): T1 sequence (Q8TDU6 1-330)
Procedure, shortened: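 HEK 293 CRE-Luciferase cells stably expressing the receptor, plated in DMEM 18-20 h before assay, then exposed to serially diluted compounds (DMEM with 5% DMSO) for 6 h. Luciferase read-out after lysis; EC50 from dose-response.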

EC50 (h-TGR5) [nM]	EC50 (human TGR5 (h-TGR5)) [nM]	SMILES
< 100	< 100	COc1cc(C(C)(C)c2cnc(SCc3c(F)ccc(S(=O)(=O)NCCC[N+](C)(C)C)c3F)n2-c2ccc(F)cc2)ccc1Cl [Example 7a, 3-({[3-({[5-{1-[4-chloro-3-(methyloxy)phenyl]-1-methylethyl}-1-(4-fluorophenyl)-1H-imidazol-2-yl]thio}methyl)-2,4-difluorophenyl]sulfonyl}amino)-N,N,N-trimethylpropan-1-aminium]
< 100	< 100	CC[N+](CC)(CC)CCCNC(=O)NS(=O)(=O)c1cc(F)c(CSc2ncc(C(C)(C)c3ccc(Cl)c(OC)c3)n2-c2ccc(F)cc2)c(F)c1 [Example 8, 3-(3-(4-((5-(2-(4-Chloro-3-methoxyphenyl)propan-2-yl)-1-(4-fluorophenyl)-1H-imidazol-2-ylthio)methyl)-3,5-difluorophenylsulfonyl)ureido)-N,N,N-triethylpropan-1-aminium 2,2,2-trifluoroacetate]
< 100	< 100	COc1cc(C(C)(C)c2cnc(SCc3c(F)cc(S(=O)(=O)NCCC[n+]4ccccc4)cc3Cl)n2-c2ccc(F)cc2)ccc1F [Example 9, 1-(3-(3-chloro-5-fluoro-4-((5-(2-(4-fluoro-3-methoxyphenyl)propan-2-yl)-1-(4-fluorophenyl)-1H-imidazol-2-ylthio)methyl)phenylsulfonamido)propyl)pyridinium methanesulfonate]
< 100	< 100	COc1cc(C(C)(C)c2cnc(SCc3c(F)cc(S(=O)(=O)N(CCC[N+](C)(C)C)CC(=O)O)cc3F)n2-c2ccc(F)cc2)ccc1Cl [Example 12]
